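1) Cells in 96-well plates. 2) Compound, 48 h, 5 concentrations. 3) Linear interpolation between surrounding doses. 4) Unreached endpoint = highest concentration. At the GI50, growth is halved. TGI is the concentration that stops growth completely.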
Assays:
Test in all cases: NCI-60 cell line screen, 48 h
CCRF-CEM leukemia = system: CCRF-CEM leukemia
OVCAR-8 ovarian = system: OVCAR-8 ovarian
COLO 205 colon = system: COLO 205 colon
MOLT-4 leukemia = system: MOLT-4 leukemia
M14 melanoma = system: M14 melanoma
ACHN renal = system: ACHN renal
UACC-257 melanoma = system: UACC-257 melanoma
OVCAR-4 ovarian = system: OVCAR-4 ovarian
CAKI-1 renal = system: CAKI-1 renal
MALME-3M melanoma = system: MALME-3M melanoma
T-47D breast = system: T-47D breast
SK-OV-3 ovarian = system: SK-OV-3 ovarian
SK-MEL-5 melanoma = system: SK-MEL-5 melanoma
NCI-H522 lung = system: NCI-H522 lung
HL-60(TB) leukemia = system: HL-60(TB) leukemia
LOX IMVI melanoma = system: LOX IMVI melanoma
MCF7 breast = system: MCF7 breast
A549 NSCLC = system: A549 NSCLC
SF-268 CNS = system: SF-268 CNS
MDA-MB-468 breast = system: MDA-MB-468 breast
SNB-75 CNS = system: SNB-75 CNS
HS 578T breast = system: HS 578T breast
HCC-2998 colon = system: HCC-2998 colon
SNB-19 CNS = system: SNB-19 CNS
SN12C renal = system: SN12C renal
RXF 393 renal = system: RXF 393 renal
K-562 leukemia = system: K-562 leukemia
HOP-62 NSCLC = system: HOP-62 NSCLC
MDA-MB-231 breast = system: MDA-MB-231 breast
786-0 renal = system: 786-0 renal
OVCAR-3 ovarian = system: OVCAR-3 ovarian
U251 CNS = system: U251 CNS
SK-MEL-28 melanoma = system: SK-MEL-28 melanoma
RPMI-8226 leukemia = system: RPMI-8226 leukemia
EKVX NSCLC = system: EKVX NSCLC
SF-539 CNS = system: SF-539 CNS
SW-620 colon = system: SW-620 colon
UACC-62 melanoma = system: UACC-62 melanoma
NCI-H23 lung = system: NCI-H23 lung
SF-295 CNS = system: SF-295 CNS
HCT-15 colon = system: HCT-15 colon
HOP-92 NSCLC = system: HOP-92 NSCLC
HCT-116 colon = system: HCT-116 colon
KM12 colon = system: KM12 colon
A498 renal = system: A498 renal
DU-145 prostate = system: DU-145 prostate
SK-MEL-2 melanoma = system: SK-MEL-2 melanoma
HT29 colon = system: HT29 colon
OVCAR-5 ovarian = system: OVCAR-5 ovarian
NCI-H226 lung = system: NCI-H226 lung
PC-3 prostate = system: PC-3 prostate
NCI/ADR-RES ovarian = system: NCI/ADR-RES ovarian
MDA-MB-435 = system: MDA-MB-435
UO-31 renal = system: UO-31 renal
TK-10 renal = system: TK-10 renal
IGROV1 ovarian = system: IGROV1 ovarian
BT-549 breast = system: BT-549 breast
NCI-H460 lung = system: NCI-H460 lung
SR leukemia = system: SR leukemia

Structure (SMILES): Clc1ccc(-c2nc3ccc(-c4nnc(SCc5ccccc5)o4)cc3[nH]2)cc1
- GI50 (CCRF-CEM leukemia): 4.91 µM
- TGI (CCRF-CEM leukemia): > 100 µM
- GI50 (OVCAR-8 ovarian): 6.49 µM
- TGI (OVCAR-8 ovarian): 27.5 µM
- GI50 (COLO 205 colon): 15.5 µM
- TGI (COLO 205 colon): > 100 µM
- GI50 (MOLT-4 leukemia): 4.71 µM
- TGI (MOLT-4 leukemia): > 100 µM
- GI50 (M14 melanoma): 25.5 µM
- TGI (M14 melanoma): > 100 µM
- GI50 (ACHN renal): 14.5 µM
- TGI (ACHN renal): > 100 µM
- GI50 (UACC-257 melanoma): 22.8 µM
- TGI (UACC-257 melanoma): > 100 µM
- GI50 (OVCAR-4 ovarian): 3.87 µM
- TGI (OVCAR-4 ovarian): 21.9 µM
- GI50 (CAKI-1 renal): 16.1 µM
- TGI (CAKI-1 renal): 54.7 µM
- GI50 (MALME-3M melanoma): 16.1 µM
- TGI (MALME-3M melanoma): 83.2 µM
- GI50 (T-47D breast): 3.05 µM
- TGI (T-47D breast): 41.3 µM
- GI50 (SK-OV-3 ovarian): 23 µM
- TGI (SK-OV-3 ovarian): > 100 µM
- GI50 (SK-MEL-5 melanoma): 4.87 µM
- TGI (SK-MEL-5 melanoma): 33.4 µM
- GI50 (NCI-H522 lung): 2.83 µM
- TGI (NCI-H522 lung): 10.3 µM
- GI50 (HL-60(TB) leukemia): 26.2 µM
- TGI (HL-60(TB) leukemia): > 100 µM
- GI50 (LOX IMVI melanoma): 4.95 µM
- TGI (LOX IMVI melanoma): 40.7 µM
- GI50 (MCF7 breast): 3.08 µM
- TGI (MCF7 breast): > 100 µM
- GI50 (A549 NSCLC): 3.78 µM
- TGI (A549 NSCLC): > 100 µM
- GI50 (SF-268 CNS): 7.59 µM
- TGI (SF-268 CNS): > 100 µM
- GI50 (MDA-MB-468 breast): 3.32 µM
- TGI (MDA-MB-468 breast): 15.3 µM
- GI50 (SNB-75 CNS): 2.13 µM
- TGI (SNB-75 CNS): 22.9 µM
- GI50 (HS 578T breast): 12.2 µM
- TGI (HS 578T breast): > 100 µM
- GI50 (HCC-2998 colon): 19.9 µM
- TGI (HCC-2998 colon): > 100 µM
- GI50 (SNB-19 CNS): 5.85 µM
- TGI (SNB-19 CNS): > 100 µM
- GI50 (SN12C renal): 1.87 µM
- TGI (SN12C renal): 4.05 µM
- GI50 (RXF 393 renal): 3.58 µM
- TGI (RXF 393 renal): 48.6 µM
- GI50 (K-562 leukemia): 4.78 µM
- TGI (K-562 leukemia): > 100 µM
- GI50 (HOP-62 NSCLC): 16.4 µM
- TGI (HOP-62 NSCLC): 86.6 µM
- GI50 (MDA-MB-231 breast): 5.36 µM
- TGI (MDA-MB-231 breast): 36.1 µM
- GI50 (786-0 renal): 4.03 µM
- TGI (786-0 renal): > 100 µM
- GI50 (OVCAR-3 ovarian): 2.7 µM
- TGI (OVCAR-3 ovarian): 7.61 µM
- GI50 (U251 CNS): 2.69 µM
- TGI (U251 CNS): 6.8 µM
- GI50 (SK-MEL-28 melanoma): 36.9 µM
- TGI (SK-MEL-28 melanoma): > 100 µM
- GI50 (RPMI-8226 leukemia): 8.07 µM
- TGI (RPMI-8226 leukemia): > 100 µM
- GI50 (EKVX NSCLC): 4.18 µM
- TGI (EKVX NSCLC): 39 µM
- GI50 (SF-539 CNS): 2.98 µM
- TGI (SF-539 CNS): 10.2 µM
- GI50 (SW-620 colon): 3.41 µM
- TGI (SW-620 colon): 43.2 µM
- GI50 (UACC-62 melanoma): 13.8 µM
- TGI (UACC-62 melanoma): > 100 µM
- GI50 (NCI-H23 lung): 6.21 µM
- TGI (NCI-H23 lung): 74.2 µM
- GI50 (SF-295 CNS): 5.41 µM
- TGI (SF-295 CNS): 52.3 µM
- GI50 (HCT-15 colon): 3.75 µM
- TGI (HCT-15 colon): 27.4 µM
- GI50 (HOP-92 NSCLC): 11.5 µM
- TGI (HOP-92 NSCLC): 48.3 µM
- GI50 (HCT-116 colon): 3.25 µM
- TGI (HCT-116 colon): > 100 µM
- GI50 (KM12 colon): 17.6 µM
- TGI (KM12 colon): > 100 µM
- GI50 (A498 renal): 18.2 µM
- TGI (A498 renal): 42.5 µM
- GI50 (DU-145 prostate): 57 µM
- TGI (DU-145 prostate): > 100 µM
- GI50 (SK-MEL-2 melanoma): 16.2 µM
- TGI (SK-MEL-2 melanoma): > 100 µM
- GI50 (HT29 colon): 16.9 µM
- TGI (HT29 colon): > 100 µM
- GI50 (OVCAR-5 ovarian): 5.87 µM
- TGI (OVCAR-5 ovarian): 97.1 µM
- GI50 (NCI-H226 lung): 7.54 µM
- TGI (NCI-H226 lung): 36 µM
- GI50 (PC-3 prostate): 6.21 µM
- TGI (PC-3 prostate): > 100 µM
- GI50 (NCI/ADR-RES ovarian): 4.09 µM
- TGI (NCI/ADR-RES ovarian): 21.5 µM
- GI50 (MDA-MB-435): 8.65 µM
- TGI (MDA-MB-435): > 100 µM
- GI50 (UO-31 renal): 9.18 µM
- TGI (UO-31 renal): > 100 µM
- GI50 (TK-10 renal): > 100 µM
- TGI (TK-10 renal): > 100 µM
- GI50 (IGROV1 ovarian): 7.37 µM
- TGI (IGROV1 ovarian): > 100 µM
- GI50 (BT-549 breast): 24 µM
- TGI (BT-549 breast): > 100 µM
- GI50 (NCI-H460 lung): 5.37 µM
- TGI (NCI-H460 lung): > 100 µM
- GI50 (SR leukemia): 5.86 µM
- TGI (SR leukemia): > 100 µM

Reference: PubChem BioAssay (NCI)
